# Experimental data taken from patent US10370343B2, “[6,6] Fused bicyclic HDAC8 inhibitors” (FORMA Therapeutics, Inc., priority 2015, dated 2019).
# Target: T1, Full length human recombinant HDAC8 protein (Homo sapiens, UniProt Q9BY41)
# T1 construct: Full length human recombinant HDAC8 protein was expressed in baculoviral system; made in house
# T1 sequence (Q9BY41 1-377): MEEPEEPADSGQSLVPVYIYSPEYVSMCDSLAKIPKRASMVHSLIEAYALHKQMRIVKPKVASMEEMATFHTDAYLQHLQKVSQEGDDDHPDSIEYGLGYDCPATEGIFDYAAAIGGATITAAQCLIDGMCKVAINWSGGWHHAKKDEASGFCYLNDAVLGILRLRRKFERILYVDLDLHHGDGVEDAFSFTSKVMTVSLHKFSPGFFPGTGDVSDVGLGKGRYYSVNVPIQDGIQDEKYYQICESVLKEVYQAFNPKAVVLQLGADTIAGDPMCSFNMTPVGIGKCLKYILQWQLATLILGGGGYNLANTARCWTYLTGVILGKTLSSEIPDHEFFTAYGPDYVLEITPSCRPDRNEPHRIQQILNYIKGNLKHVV
# Experiment: In vitro histone deacetylase assay: enzymatic HDAC8 electrophoretic mobility shift assay
# Format: biochemical
# Conditions: electrophoretic mobility shift assay; enzyme 1 nM; 2 μM fluorescently labeled peptide substrate RHKK(Ac)-NH2; 25° C.; 12 concentrations; read-out: HDAC8 IC50
# Description: The enzymatic HDAC8 assay was performed using electrophoretic mobility shift assay. Full length human recombinant HDAC8 protein was expressed in baculoviral system and purified by affinity chromatography. The enzymatic reactions were assembled in 384 well plates in a total volume of 25 μL in a reaction buffer composing: 100 mM HEPES, pH7.5, 25 mM KCl, 0.1% bovine serum albumin, 0.01% Triton X-100, 1% DMSO (from compounds) 2 μM of the fluorescently labeled peptide substrate and enzyme. The enzyme was added at a final concentration of 1 nM. The peptide substrate RHKK(Ac)—NH2 was used. The compounds were tested at 12 concentrations spaced by 3× dilution intervals. Negative control samples (0%-inhibition in the absence of inhibitor) and positive control samples (100%-inhibition) were assembled in replicates of four in each assay plate. The reactions were incubated at 25° C. and quenched by the addition of 45 μL of termination buffer (100 mM HEPES, pH 7.5, 0.01% Triton X-100, 0.05% SDS).
# The terminated assay plates were analyzed on LabChip® 3000 microfluidic electrophoresis instrument (Perkin Elmer/Caliper Life Sciences). The fluorescence intensity of the electrophoretically separated de-acetylated product and substrate peptide was measured. Activity in each sample was determined as the product to sum ratio (PSR): P/(S+P), where P is the peak height of the product peptide and S is the peak height of the substrate peptide. Percent inhibition (Pinh) is determined using the following equation: Pinh=(PSR0%−PSRinh)/(PSR0%−PSR100%)*100, where PSRinh is the product sum ratio in the presence of inhibitor, PSR0% is the average product sum ration in the absence of inhibitor and PSR100% is the average product sum ratio in 100%-inhibition control samples. The IC50 values of inhibitors were determined by fitting the %-inhibition curves with 4 parameter dose-response model using XLfit 4 software.
row,Compound,IC50 [nM]
1,"O=C(NO)c1ccc2c(c1)N(Cc1c(Cl)cccc1Cl)CCO2 [Compound I-23, 4-(2,6-dichlorobenzyl)-N-hydroxy-3,4-dihydro-2H-benzo[b][1,4]oxazine-6-carboxamide]",100 to 1000
2,"O=C(NO)c1ccc2c(c1)N(Cc1ccc(C(F)(F)F)cc1)C(=O)CO2 [Compound I-35, N-hydroxy-3-oxo-4-(4-(trifluoromethyl)benzyl)-3,4-dihydro-2H-benzo[b][1,4]oxazine-6-carboxamide]",< 25
3,"O=C(NO)c1ccc2c(c1)N(Cc1ccccc1)CC(C(=O)NCc1ccccc1)O2 (stereo not shown) [Compound I-6, N^2,4-dibenzyl-N^6-hydroxy-3,4-dihydro-2H-benzo[b][1,4]oxazine-2,6-dicarboxamide]",25 to 100
4,"O=C(NO)c1ccc2c(c1)N(Cc1cccc(F)c1)CCO2 [Compound I-24, 4-(3-fluorobenzyl)-N-hydroxy-3,4-dihydro-2H-benzo[b][1,4]oxazine-6-carboxamide]",< 25
5,"O=C(NO)c1ccc2c(c1)N(Cc1ccccc1OC(F)(F)F)CCO2 [Compound I-25, N-hydroxy-4-(2-(trifluoromethoxy)benzyl)-3,4-dihydro-2H-benzo[b][1,4]oxazine-6-carboxamide]",100 to 1000
6,"O=C(NO)c1ccc2c(c1)N(Cc1ccccc1)CC(C(=O)NC1CCOCC1)O2 (stereo not shown) [Compound I-2, 4-benzyl-N^6-hydroxy-N^2-(tetrahydro-2H-pyran-4-yl)-3,4-dihydro-2H-benzo[b][1,4]oxazine-2,6-dicarboxamide]",25 to 100
7,"C#CCN1C(=O)COc2ccc(C(=O)NO)cc21 [Compound I-40, N-hydroxy-3-oxo-4-(prop-2-yn-1-yl)-3,4-dihydro-2H-benzo[b][1,4]oxazine-6-carboxamide]",100 to 1000
8,"O=C(NO)c1ccc2c(c1)N(Cc1cccc(C(F)(F)F)c1)CCS2(=O)=O [Compound I-81, N-hydroxy-4-(3-(trifluoromethyl)benzyl)-3,4-dihydro-2H-benzo[b][1,4]thiazine-6-carboxamide-1,1-dioxide]",< 25
9,"O=C(NO)c1ccc2c(c1)N(Cc1ccccc1C(F)(F)F)C(=O)CO2 [Compound I-65, N-hydroxy-3-oxo-4-(2-(trifluoromethyl)benzyl)-3,4-dihydro-2H-benzo[b][1,4]oxazine-6-carboxamide]",100 to 1000
10,"CC(C)=CCCN1C(=O)COc2ccc(C(=O)NO)cc21 [Compound I-44, N-hydroxy-4-(4-methylpent-3-en-1-yl)-3-oxo-3,4-dihydro-2H-benzo[b][1,4]oxazine-6-carboxamide]",25 to 100
11,"CN1CC(C(=O)NC2CCOCC2)Oc2cc(C(=O)NO)ccc21 (stereo not shown) [Compound I-7, N^7-hydroxy-4-methyl-N^2-(tetrahydro-2H-pyran-4-yl)-3,4-dihydro-2H-benzo[b][1,4]oxazine-2,7-dicarboxamide]",100 to 1000
12,"O=C(NO)c1ccc2c(c1)N(Cc1ccc(S(=O)(=O)C(F)(F)F)cc1)C(=O)CO2 [Compound I-17, N-hydroxy-3-oxo-4-(4-((trifluoromethyl)sulfonyl)benzyl)-3,4-dihydro-2H-benzo[b][1,4]oxazine-6-carboxamide]",< 25
13,"CN1CC(C(=O)N2CC3(CC3)c3ccccc32)Oc2cc(C(=O)NO)ccc21 (stereo not shown) [Compound I-9, N-hydroxy-4-methyl-2-(spiro[cyclopropane-1,3′-indoline]-1′-carbonyl)-3,4-dihydro-2H-benzo[b][1,4]oxazine-7-carboxamide]",< 25
14,"O=C(NO)c1ccc2c(c1)OC(C(=O)NCc1ccccc1)CN2Cc1ccccc1 (stereo not shown) [Compound I-12, N^2,4-dibenzyl-N^7-hydroxy-3,4-dihydro-2H-benzo[b][1,4]oxazine-2,7-dicarboxamide]",100 to 1000
15,"CCCN1C(=O)COc2ccc(C(=O)NO)cc21 [Compound I-39, N-hydroxy-3-oxo-4-propyl-3,4-dihydro-2H-benzo[b][1,4]oxazine-6-carboxamide]",100 to 1000
16,"O=C(NO)c1ccc2c(c1)N(CCc1ccc(Cl)cc1)C(=O)CO2 [Compound I-34, 4-(4-chlorophenethyl)-N-hydroxy-3-oxo-3,4-dihydro-2H-benzo[b][1,4]oxazine-6-carboxamide]",25 to 100
17,"O=C(NO)c1ccc2c(c1)N(CCN1CCCS1(=O)=O)C(=O)CO2 [Compound I-52, 4-(2-(1,1-dioxidoisothiazolidin-2-yl)ethyl)-N-hydroxy-3-oxo-3,4-dihydro-2H-benzo[b][1,4]oxazine-6-carboxamide]",100 to 1000

# Other lines, results leading:
row,IC50 [nM],Compound
1,< 25,"Cc1ccc(CN2C(=O)COc3ccc(C(=O)NO)cc32)cc1C [Compound I-219, 4-(3,4-dimethylbenzyl)-N-hydroxy-3-oxo-3,4-dihydro-2H-benzo[b][1,4]oxazine-6-carboxamide]"
2,< 25,"O=C(NO)c1ccc2c(c1)N(Cc1cccc(OC(F)F)c1)CCO2 [Compound I-132, 4-(3-(difluoromethoxy)benzyl)-N-hydroxy-3,4-dihydro-2H-benzo[b][1,4]oxazine-6-carboxamide]"
3,100 to 1000,"Cc1ccc(CN2CCOc3ccc(C(=O)NO)cc32)cc1 [Compound I-117, N-hydroxy-4-(4-methylbenzyl)-3,4-dihydro-2H-benzo[b][1,4]oxazine-6-carboxamide]"
4,100 to 1000,"CCCn1c(CN2C(=O)COc3ccc(C(=O)NO)cc32)nc2ccccc21 [Compound I-282, N-hydroxy-3-oxo-4-((1-propyl-1H-benzo[d]imidazol-2-yl)methyl)-3,4-dihydro-2H-benzo[b][1,4]oxazine-6-carboxamide]"
5,< 25,"O=C(NO)c1ccc2c(c1)N(Cc1ccc(S(=O)(=O)C(F)F)cc1)C(=O)CO2 [Compound I-88, 4-(4-((difluoromethyl)sulfonyl)benzyl)-N-hydroxy-3-oxo-3,4-dihydro-2H-benzo[b][1,4]oxazine-6-carboxamide]"
6,100 to 1000,"COCCn1c(N2CCCc3cc(C(=O)NO)ccc32)nc2ccccc21 [Compound I-111, N-hydroxy-1-(1-(2-methoxyethyl)-1H-benzo[d]imidazol-2-yl)-1,2,3,4-tetrahydroquinoline-6-carboxamide]"
7,> 1000,"O=C(NO)c1ccc2c(c1)CCCN2c1nc2ccccc2[nH]1 [Compound I-107, 1-(1H-benzo[d]imidazol-2-yl)-N-hydroxy-1,2,3,4-tetrahydroquinoline-6-carboxamide]"
8,100 to 1000,"O=C(NO)c1ccc2c(c1)N(S(=O)(=O)c1ccccc1)CCO2 [Compound I-86, N-hydroxy-4-(phenylsulfonyl)-3,4-dihydro-2H-benzo[b][1,4]oxazine-6-carboxamide]"
9,100 to 1000,"O=C(NO)c1ccc2c(c1)N(Cc1nc3ccc(Cl)cc3n1CC1CC1)C(=O)CO2 [Compound I-260, 4-((6-chloro-1-(cyclopropylmethyl)-1H-benzo[d]imidazol-2-yl)methyl)-N-hydroxy-3-oxo-3,4-dihydro-2H-benzo[b][1,4]oxazine-6-carboxamide]"
10,< 25,"CS(=O)(=O)c1ccc(CN2C(=O)COc3ccc(C(=O)NO)cc32)c(Cl)c1 [Compound I-93, 4-(2-chloro-4-(methylsulfonyl)benzyl)-N-hydroxy-3-oxo-3,4-dihydro-2H-benzo[b][1,4]oxazine-6-carboxamide]"
11,25 to 100,"O=C(NO)c1ccc2c(c1)N(CC1CCCCC1)CCO2 [Compound I-133, 4-(cyclohexylmethyl)-N-hydroxy-3,4-dihydro-2H-benzo[b][1,4]oxazine-6-carboxamide]"
